Data: patent US20090215895A1, “Therapeutic and carrier molecules” (PEPLIN BIOLIPIDS PTY LTD, priority 2004, published 2009)

Tested on: E-selectin
Test: LPS-induced E-selectin expression in aortic endothelium
Type: in vivo, BALB/c mice
Conditions: intravenous, 2 hr before LPS, aortas after 5 hr
Procedure: FIG. 14 is a representation showing (A) effect of MP3 on in vivo inflammatory response measured as delayed type hypersensitivity (DTH) to sheep erythrocytes and LPS-induced influx of neutrophils and mononuclear cells in the peritoneal cavity in BALB/c mice. In the DTH experiments mice were injected with sheep erythrocytes subcutaneously, challenged with the antigen in the hind foot pad 6 days later and the amount of foot pad swelling measured 48 hr later. One hour prior to challenge mice were given 10 mg/kg body weight of β-oxa fatty acid in 7% w/v, DMSO as vehicle intraperitoneally. For the peritoneal cavity inflammation, mice were given intravenously 40 mg/kg MP3 intravenously and 6 hr later injected with LPS intraperitoneally. The cellular infiltrates were examined 24 and 72 hr later. The data, expressed as % of control, are presented as mean±SEM of 10 and 5 mice for DTH and peritoneal inflammation, respectively. […] The data, expressed as % of control, are presented as mean±SEM of ten mice per group and is representative of two experimental runs. […]
The LPS-induced expression of E-selectin in the aortic endothelium of BALB/c mice was determined following injection of 50 μg LPS intraperitoneally and aortas encompassing the ascending part of the aortic arch through to the bifurcation to the common iliac arteries isolated after 5 hr. […]

CCCCC/C=C\C/C=C\C/C=C\C/C=C\CCCCOCC(=O)O [MP3, β-oxa-23:4n-6] was tested, and the “LPS-induced E-selectin expression in aortic endothelium” value was “effective in vivo at suppressing LPS-stimulated up-regulation of E-selectin expression” and the “LPS-induced E-selectin expression in aortic endothelium” value (listed as β-oxa-23:4n-6) was “significant reduction in LPS-induced E-selectin expression”.
